Reference: ChEMBL document CHEMBL1201862, “PubChem BioAssay data set” (2004)
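Compound exposure: 48 hours, 5 concentrations, 96-well plates. GI50 is the concentration that inhibits growth by half.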 Active and inactive are the calls of the source. Rule as the data show it: active = GI50 up to about 1.1 µM and inactive = higher.

Key:
Test in all cases: NCI tumour cell line growth inhibition, 48 h
[1] = system: DU-145
[2] = system: NCI-H522
[3] = system: UO-31
[4] = system: HCT-15
[5] = system: HT-29
[6] = system: MDA-MB-231
[7] = system: NCI-H460
[8] = system: SF-539
[9] = system: HCT-116
[10] = system: HCC 2998
[11] = system: SW-620
[12] = system: SR
[13] = system: COLO 205
[14] = system: A498
[15] = system: MCF7
[16] = system: IGROV-1
[17] = system: OVCAR-4
[18] = system: OVCAR-8
[19] = system: HOP-92
[20] = system: HL-60

## COC1=C(OC)C(=O)C(Cc2c(Cl)nc3sc(C)cn23)=C(C)C1=O
[1]
  GI50: 22.1 µM (inactive)
[2]
  GI50: 13.4 µM (inactive)
[3]
  GI50: 17.1 µM (inactive)
[4]
  GI50: 24.9 µM
[5]
  GI50: 17.9 µM (inactive)
[6]
  GI50: 12.2 µM (inactive)
[7]
  GI50: 16.7 µM (inactive)
[8]
  GI50: 19 µM (inactive)
[9]
  GI50: 23 µM (inactive)
[10]
  GI50: 17.2 µM (inactive)
[11]
  GI50: 21.3 µM (inactive)
[12]
  GI50: 16.7 µM (inactive)
[13]
  GI50: 19.6 µM (inactive)
[14]
  GI50: 22.9 µM (inactive)
[15]
  GI50: 19.5 µM (inactive)
[16]
  GI50: 17.8 µM (inactive)
[17]
  GI50: 7.5 µM (inactive)
[18]
  GI50: 19.1 µM (inactive)

## CC1=CCC[C@H]2[C@](C)(CC3=CC(=O)C(SCC(C)C)=CC3=O)[C@@H](C)CC[C@]12C
[19]
  GI50: 4.84 µM (inactive)
[1]
  GI50: 14.7 µM (inactive)
[3]
  GI50: 11.7 µM (inactive)
[4]
  GI50: 15.1 µM
[5]
  GI50: 15.4 µM (inactive)
[6]
  GI50: 24.6 µM (inactive)
[7]
  GI50: 14.6 µM (inactive)
[8]
  GI50: 18 µM (inactive)
[9]
  GI50: 12 µM (inactive)
[10]
  GI50: 16.3 µM (inactive)
[11]
  GI50: 17.3 µM (inactive)
[12]
  GI50: 7.29 µM (inactive)
[13]
  GI50: 13.2 µM (inactive)
[14]
  GI50: 18.8 µM (inactive)
[15]
  GI50: 9.71 µM (inactive)
[16]
  GI50: 11 µM (inactive)
[17]
  GI50: 15.3 µM (inactive)
[18]
  GI50: 13.3 µM (inactive)

## [O-][s+]1c2c(Cc3ccccc3)c(Cc3ccccc3)c1CCc1cccc(c1)CC2
[19]
  GI50: 13.4 µM (inactive)
[1]
  GI50: 15.8 µM (inactive)
[2]
  GI50: 11.3 µM (inactive)
[3]
  GI50: 12.9 µM (inactive)
[4]
  GI50: 12.9 µM
[5]
  GI50: 11.9 µM (inactive)
[6]
  GI50: 15.9 µM (inactive)
[7]
  GI50: 13.4 µM (inactive)
[8]
  GI50: 18.7 µM (inactive)
[9]
  GI50: 8.99 µM (inactive)
[10]
  GI50: 14.1 µM (inactive)
[20]
  GI50: 16.9 µM (inactive)
[11]
  GI50: 24.5 µM (inactive)
[12]
  GI50: 17.2 µM (inactive)
[13]
  GI50: 17.5 µM (inactive)
[15]
  GI50: 11.1 µM (inactive)
[17]
  GI50: 5.02 µM (inactive)
[18]
  GI50: 13.3 µM (inactive)

## O=C(Cc1ccc(Cl)cc1)Nc1ccc2oc(-c3ccccc3)nc2c1
[19]
  GI50: > 100 µM (inactive)
[1]
  GI50: > 100 µM (inactive)
[2]
  GI50: > 100 µM (inactive)
[4]
  GI50: > 100 µM
[5]
  GI50: > 100 µM (inactive)
[6]
  GI50: > 100 µM (inactive)
[7]
  GI50: > 100 µM (inactive)
[8]
  GI50: 35.2 µM (inactive)
[9]
  GI50: > 100 µM (inactive)
[10]
  GI50: > 100 µM (inactive)
[20]
  GI50: > 100 µM (inactive)
[11]
  GI50: > 100 µM (inactive)
[12]
  GI50: > 100 µM (inactive)
[13]
  GI50: > 100 µM (inactive)
[14]
  GI50: > 100 µM (inactive)
[15]
  GI50: > 100 µM (inactive)
[16]
  GI50: > 100 µM (inactive)
[17]
  GI50: 29.5 µM (inactive)
[18]
  GI50: 32.7 µM (inactive)

## O=[N+]([O-])/C=C/c1cc2ccccc2[nH]1
[19]
  GI50: 19.8 µM (inactive)
[1]
  GI50: 15.4 µM (inactive)
[2]
  GI50: 9.35 µM (inactive)
[3]
  GI50: 14.8 µM (inactive)
[4]
  GI50: 21.5 µM
[5]
  GI50: 15.8 µM (inactive)
[6]
  GI50: 18.2 µM (inactive)
[7]
  GI50: 14.6 µM (inactive)
[8]
  GI50: 9.84 µM (inactive)
[9]
  GI50: 4.31 µM (inactive)
[20]
  GI50: 4.33 µM (inactive)
[11]
  GI50: 8.83 µM (inactive)
[12]
  GI50: 5.06 µM (inactive)
[13]
  GI50: 17.2 µM (inactive)
[14]
  GI50: 19.3 µM (inactive)
[15]
  GI50: 4.03 µM (inactive)
[16]
  GI50: 12.2 µM (inactive)
[17]
  GI50: 14.1 µM (inactive)
[18]
  GI50: 21.6 µM (inactive)

## COC1(CC[C@@H](C)COC2OC(CO)C(O)C(O)C2O)OC2C[C@H]3[C@@H]4CC[C@H]5C[C@@H](OC6OC(CO)C(OC7OC(CO)C(O)C(O)C7O)C(O)C6OC6OC(C)C(O)C(O)C6O)[C@H](O)C[C@]5(C)[C@H]4CC[C@]3(C)C2[C@@H]1C (stereo not given in full)
[19]
  GI50: 4.24 µM (inactive)
[1]
  GI50: 2.01 µM (inactive)
[2]
  GI50: 2.2 µM (inactive)
[3]
  GI50: 1.79 µM (inactive)
[5]
  GI50: 2.19 µM (inactive)
[6]
  GI50: 1.95 µM (inactive)
[7]
  GI50: 3.08 µM (inactive)
[8]
  GI50: 1.83 µM (inactive)
[9]
  GI50: 1.86 µM (inactive)
[10]
  GI50: 1.7 µM (inactive)
[20]
  GI50: 2.32 µM (inactive)
[11]
  GI50: 2.06 µM (inactive)
[12]
  GI50: 2.77 µM (inactive)
[13]
  GI50: 2.57 µM (inactive)
[14]
  GI50: 1.81 µM (inactive)
[15]
  GI50: 2.88 µM (inactive)
[16]
  GI50: 1.74 µM (inactive)
[17]
  GI50: 1.97 µM (inactive)
[18]
  GI50: 1.99 µM (inactive)

## O=C(/C=C/c1ccsc1)c1cccs1
[19]
  GI50: 29.4 µM (inactive)
[1]
  GI50: > 100 µM (inactive)
[2]
  GI50: 18.7 µM (inactive)
[3]
  GI50: 18.5 µM (inactive)
[4]
  GI50: 18.7 µM
[5]
  GI50: 36.9 µM (inactive)
[6]
  GI50: 36 µM (inactive)
[7]
  GI50: 41.7 µM (inactive)
[8]
  GI50: 32.9 µM (inactive)
[9]
  GI50: 15.6 µM (inactive)
[10]
  GI50: 19.7 µM (inactive)
[11]
  GI50: 17.3 µM (inactive)
[12]
  GI50: > 10 µM (inactive)
[13]
  GI50: 34.1 µM (inactive)
[14]
  GI50: > 100 µM (inactive)
[15]
  GI50: 17 µM (inactive)
[16]
  GI50: 53.2 µM (inactive)
[17]
  GI50: 44.8 µM (inactive)
[18]
  GI50: > 10 µM (inactive)
